Measured values taken from patent US10494384B2, “Urea peptoid boric acid compound, pharmaceutical composition thereof, preparation method therefor, and uses thereof” (Peking University, priority 2015, dated 2019).
Read-outs that look alike come from different tables or passages of the source.

Key:
[1] = system: Hela, human cervical carcinoma; experiment: preliminary anti-tumor screening in vitro, MTT method; assay type: cell-based; details: read-out: inhibition rates (%) Hela
Protocol: (§1) The test methods used in this test example are routine methods for anti-tumor activities test in pharmaceutical area, for example, referring to the following reference: (J. Immunol Method, 1983, 65, 55).
(§2) Test models: A: MTT method (Hela, human cervical carcinoma); B: SRB method (BGC-823, […]); C: SRB method (MCF-7, breast cancer); D: SRB method (A549, human lung cancer); E: SRB method (PC3M1E8, prostate cancer).
(§3) Inhibition rates of the compounds were measured under concentrations of 0.1 μM, 1 μM or 10 μM.

[2] = molecular target: T1, 20S proteasome extracted from rat liver (CT-L) (Rattus norvegicus, UniProt P18421+P28075); experiment: inhibition of 20S proteasome, CT-L activity (fluorescent peptide); assay type: biochemical; details: rat liver 20S proteasome; for IC50: read-out: IC50 (μM) CT-L
T1 construct: 20S proteasome extracted from rat liver; from tissue; host or cells: rat liver
Protocol: (§4) 1 μg of 20S proteasome extracted from rat liver was incubated with a 100 μL solution containing various concentrations of the present compounds, 50 μM fluorescent peptides and 20 mM Tris-HCl at 37° C. for 1 h, respectively. […] 0.1% DMSO was used as a solvent control. Compared with the fluorescence of solvent control, an inhibition rate or IC50 value was calculated.

[3] = molecular target: T2, 20S proteasome extracted from rat liver (PGPH) (Rattus norvegicus, UniProt P28073+Q9JHW0); experiment: inhibition of 20S proteasome, PGPH activity (fluorescent peptide); assay type: biochemical; details: rat liver 20S proteasome; for IC50: read-out: IC50 (μM) PGPH
T2 construct: 20S proteasome extracted from rat liver; from tissue; host or cells: rat liver
Protocol: as §4

[4] = molecular target: T3, 20S proteasome extracted from rat liver (T-L) (Rattus norvegicus, UniProt P40112+Q9JHW0); experiment: inhibition of 20S proteasome, T-L activity (fluorescent peptide); assay type: biochemical; details: rat liver 20S proteasome; for IC50: read-out: IC50 (μM) T-L
T3 construct: 20S proteasome extracted from rat liver; from tissue; host or cells: rat liver
Protocol: as §4

MCF-7, breast cancer = experiment: preliminary anti-tumor screening in vitro, SRB method; assay type: cell-based; details: Homo sapiens, read-out: inhibition rates (%) MCF-7
Protocol: as §1, §2, §3

BGC-823, liver cancer = experiment: as above; assay type: cell-based; details: Homo sapiens, read-out: inhibition rates (%) BGC-823
Protocol: as §1, §2, §3

A549, human lung cancer = experiment: as above; assay type: cell-based; details: read-out: inhibition rates (%) A549
Protocol: as §1, §2, §3

HepG2 liver cancer cells = experiment: anti-tumor activity in vitro (IC50), MTT; assay type: cell-based; details: Homo sapiens, liver cancer cells, 72 h, read-out: IC50 (μM) HepG2
Protocol: (§5) Cancer cells were cultured in vitro. When cell growth reached logarithmic phase, the cells were collected and centrifuged at 1000 rpm for 5 min, before the supernate was removed and the cells were suspended in a moderate amount of medium, and then the concentration of cell was adjusted to 3.5×10^4/mL. The cell suspension was added into a 96-well plate with 100 μL per well and cultured in a cell incubator (37° C., 5% CO2) for 24 h. Then test drugs of different end concentrations were added, and the negative control group was added DMSO (end concentration was 0.5%), while each group afforded three repetitive holes. After cultivation for another 72 h in the cell incubator, a solution containing 5 mg/ml MTT (20 μL) was added into each well and the 96-well plate was placed at 37° C. for 3 h. To each well was added 150 μL DMSO, after oscillation in a shaking table for 5 min, the optical density (OD) values at 492 nm/620 nm were measured. IC50 values were calculated by Prism Graphpad statistical software.

[5] = system: MGC803 stomach cancer cells; experiment: anti-tumor activity in vitro (IC50), MTT; assay type: cell-based; details: Homo sapiens, MGC-803, 72 h
Protocol: as §5

[6] = stomach cancer cells, MTT, read-out: IC50 (μM) MGC803
[7] = MGC80-3, MTT, value ± spread, read-out: IC50 (μM), growth of stomach cancer cells (MGC80-3)

Work on `CC(C)C[C@H](NC(=O)[C@H](Cc1ccccc1)NC(=O)N[C@@H](Cc1ccccc1)C(=O)Nc1cnccn1)B(O)O` [Example 24, N-L-phenylalanyl-L-leucine borate-N′-(pyrazin-2-ylcarbamoyl)-L-phenylalanine-urea] yielded an inhibition at 0.1 µM ([1]; 0.1 μM) of 24.7%, an inhibition at 1 µM ([1]; 1 μM) of 45.3% and an inhibition at 10 µM ([1]; 10 μM) of 48.6%. It also gave an inhibition at 0.2 µM ([2]; 0.2 μM, 37° C., 1 h, read-out: inhibition rates (%) CT-L) of 84.6%, an inhibition at 2 µM ([2]; 2 μM, 37° C., 1 h, read-out: inhibition rates (%) CT-L) of 95.7% and an inhibition at 20 µM ([2]; 20 μM, 37° C., 1 h, read-out: inhibition rates (%) CT-L) of 97.4%. The inhibition at 0.2 µM ([3]; 0.2 μM, 37° C., 1 h, read-out: inhibition rates (%) PGPH) was -21.8%, the inhibition at 2 µM ([3]; 2 μM, 37° C., 1 h, read-out: inhibition rates (%) PGPH) was -24.7% and the inhibition at 20 µM ([3]; 20 μM, 37° C., 1 h, read-out: inhibition rates (%) PGPH) was -24.2%. It also gave an inhibition at 0.2 µM ([4]; 0.2 μM, 37° C., 1 h, read-out: inhibition rates (%) T-L) of -0.926%, an inhibition at 2 µM ([4]; 2 μM, 37° C., 1 h, read-out: inhibition rates (%) T-L) of 43.5% and an inhibition at 20 µM ([4]; 20 μM, 37° C., 1 h, read-out: inhibition rates (%) T-L) of 90.2%. For the same molecule, the inhibition at 0.1 µM (MCF-7, breast cancer; MCF7, 0.1 μM) was 19.7%, the inhibition at 1 µM (MCF-7, breast cancer; MCF7, 1 μM) was 33.3% and the inhibition at 10 µM (MCF-7, breast cancer; MCF7, 10 μM) was 45.1%. The inhibition at 0.1 µM (BGC-823, liver cancer; 0.1 μM) was 36.3%, the inhibition at 1 µM (BGC-823, liver cancer; 1 μM) was 45.6% and the inhibition at 10 µM (BGC-823, liver cancer; 10 μM) was 51.1%. For the same molecule, the inhibition at 0.1 µM (A549, human lung cancer; 0.1 μM) was 29.5%, the inhibition at 1 µM (A549, human lung cancer; 1 μM) was 61.5% and the inhibition at 10 µM (A549, human lung cancer; 10 μM) was 70.2%.
In the case of `CC(C)C[C@H](NC(=O)[C@H](Cc1ccccc1)NC(=O)NCc1ccc(-c2ccccc2)cc1)B(O)O` [Example 32, N-L-phenylalanyl-L-leucine borate-N′-p-phenyl-benzylamine-urea], the IC50 [2] is reported as 0.0003 µM, the IC50 [3] is reported as 0.24 µM and the IC50 [4] is reported as 1.15 µM. The IC50 (HepG2 liver cancer cells) was 0.0372 µM and the IC50 [5, 6] was 0.00587 µM.
`CC(C)C[C@H](NC(=O)[C@H](Cc1ccccc1)NC(=O)NCc1cccc2ccccc12)B(O)O` [Example 34, N-L-phenylalanyl-L-leucine borate-N′-naphth-1-ylmethylamine-urea] was tested, and the IC50 [2] was 0.012 µM, the IC50 [3] was 0.12 µM and the IC50 [4] was 0.15 µM. For the same molecule, the IC50 (HepG2 liver cancer cells) was 0.0531 µM and the IC50 [5, 6] was 0.00706 µM.
Molecule `CC(C)C[C@H](NC(=O)[C@H](Cc1ccccc1)NC(=O)N1CCCc2ccccc21)B(O)O` [Example 38, N-L-phenylalanyl-L-leucine borate-N′-1,2,3,4-tetrahydroquinoline-urea] has an IC50 [5, 7] of 0.137 ± 0.011 µM.
For `CC(C)C[C@H](NC(=O)[C@H](Cc1ccccc1)NC(=O)N1CCc2ccccc2C1C)B(O)O` (stereo partly drawn) [Example 39, N-L-phenylalanyl-L-leucine borate-N′-1-methyl-1,2,3,4-tetrahydroisoquinoline-urea], the IC50 [5, 7] was 0.139 ± 0.004 µM.
Work on `CC(C)C[C@H](NC(=O)[C@H](CC(C)C)NC(=O)N1CCc2ccccc2C1)B(O)O` [Example 40, N-L-leucyl-L-leucine borate-N′-1,2,3,4-tetrahydroisoquinoline-urea] yielded an IC50 [5, 7] of 0.163 ± 0.008 µM.
In the case of `CC(C)C[C@H](NC(=O)[C@H](C)NC(=O)N1CCc2ccccc2C1)B(O)O` [Example 41, N-L-alanyl-L-leucine borate-N′-1,2,3,4-tetrahydroisoquinoline-urea], the IC50 [5, 7] is reported as 0.134 ± 0.003 µM.
Molecule `CC(C)C[C@H](NC(=O)[C@@H](NC(=O)N1CCc2ccccc2C1)C(C)C)B(O)O` [Example 42, N-L-valyl-L-leucine borate-N′-1,2,3,4-tetrahydroisoquinoline-urea] has an IC50 [5, 7] of 0.143 ± 0.004 µM.
Work on `CC(C)C[C@H](NC(=O)[C@H](Cc1ccc2ccccc2c1)NC(=O)N1CCc2ccccc2C1)B(O)O` [Example 43, N-L-naphthylalanyl-L-leucine borate-N′-1,2,3,4-tetrahydroisoquinoline-urea] yielded an IC50 [5, 7] of 0.0173 ± 0.003 µM.
`CC[C@H](C)[C@H](NC(=O)N1CCc2ccccc2C1)C(=O)N[C@@H](CC(C)C)B(O)O` [Example 44, N-L-isoleucyl-L-leucine borate-N′-1,2,3,4-tetrahydroisoquinoline-urea] gave an IC50 [5, 7] of 0.139 ± 0.004 µM.
For `CC(C)C[C@H](NC(=O)[C@H](Cc1c[nH]c2ccccc12)NC(=O)N1CCc2ccccc2C1)B(O)O` [Example 45, N-L-tryptophanyl-L-leucine borate-N′-1,2,3,4-tetrahydroisoquinoline-urea], the IC50 [5, 7] was 0.0092 ± 0.001 µM.
Molecule `CC(C)C[C@H](NC(=O)[C@H](Cc1ccccc1)NC(=O)N1CCc2ccc([N+](=O)[O-])cc2C1)B(O)O` [Example 46, N-L-phenylalanyl-L-leucine borate-N′-7-nitro-1,2,3,4-tetrahydroisoquinoline-urea] has an IC50 [5, 7] of 0.0046 µM.
Work on `CC(C)C[C@H](NC(=O)[C@H](CCc1ccccc1)NC(=O)N1CCc2ccccc2C1)B(O)O` [Example 47, N-L-homophenylalanyl-L-leucine borate-N′-1,2,3,4-tetrahydroisoquinoline-urea] yielded an IC50 [5, 7] of 0.0244 ± 0.005 µM.
With `CC(C)C[C@H](NC(=O)[C@H](Cc1ccc([N+](=O)[O-])cc1)NC(=O)N1CCc2ccccc2C1)B(O)O` [Example 48, N-L-4-nitro-phenylalanyl-L-leucine borate-N′-1,2,3,4-tetrahydroisoquinoline-urea] the IC50 [5, 7] was 0.111 ± 0.009 µM.
With `CC(C)C[C@H](NC(=O)[C@H](CCC(N)=O)NC(=O)N1CCc2ccccc2C1)B(O)O` [Example 49] the IC50 [5, 7] was 0.0401 ± 0.005 µM.
In the case of `COc1cc2c(cc1OC)CN(C(=O)N[C@@H](Cc1ccccc1)C(=O)N[C@@H](CC(C)C)B(O)O)CC2` [Example 50, N-L-phenylalanyl-L-leucine borate-N′-6,7-dimethoxy-1,2,3,4-tetrahydroisoquinoline-urea], the IC50 [5, 7] is reported as 0.0172 ± 0.002 µM.
In the case of `COc1ccc2c(c1)CN(C(=O)N[C@@H](Cc1ccccc1)C(=O)N[C@@H](CC(C)C)B(O)O)CC2` [Example 51, N-L-phenylalanyl-L-leucine borate-N′-7-methoxy-1,2,3,4-tetrahydroisoquinoline-urea], the IC50 [5, 7] is reported as > 100 µM.
`COc1ccc2c(c1)CCN(C(=O)N[C@@H](Cc1ccccc1)C(=O)N[C@@H](CC(C)C)B(O)O)C2` [Example 52, N-L-phenylalanyl-L-leucine borate-N′-6-methoxy-1,2,3,4-tetrahydroisoquinoline-urea] was tested, and the IC50 [5, 7] was 0.85 ± 0.106 µM.
Molecule `COc1cccc2c1CN(C(=O)N[C@@H](Cc1ccccc1)C(=O)N[C@@H](CC(C)C)B(O)O)CC2` [Example 53, N-L-phenylalanyl-L-leucine borate-N′-8-methoxy-1,2,3,4-tetrahydroisoquinoline-urea] has an IC50 [5, 7] of 2.24 ± 0.503 µM.
`COc1cccc2c1CCN(C(=O)N[C@@H](Cc1ccccc1)C(=O)N[C@@H](CC(C)C)B(O)O)C2` [Example 54, N-L-phenylalanyl-L-leucine borate-N′-5-methoxy-1,2,3,4-tetrahydroisoquinoline-urea] gave an IC50 [5, 7] of 0.361 ± 0.088 µM.
`CC(C)C[C@H](NC(=O)[C@H](Cc1ccccc1)NC(=O)N1CCc2ccsc2C1)B(O)O` [Example 55, N-L-phenylalanyl-L-leucine borate-N′-4,5,6,7-tetrahydrothieno[2,3-c]pyridine-urea] showed an IC50 [5, 7] of 0.006 µM.
